Source: publication PMC9284491 (Nature Communications, 2022)
Entries after “also recorded” stand apart in the source; their conditions may differ. Where two headings read alike, the source gives them in different places.

Columns and labels:
ER = system: ER; set-up: method as in PMID 31721572; details: in vitro, preclinical, cited from earlier work
CYP3A = assay: 4β-hydroxycholesterol ratio, induction/inhibition effect on CYP3A; type: in vivo, human; details: ≥200 mg QD
[1] = system: ER+/HER2− advanced breast cancer; assay: Antitumor activity per RECIST v1.1 (ORR, CBR, best overall response); type: in vivo, human; details: Part A, local review, n = 16
[2] = 24 h urine fraction, renal elimination of amcenestrant; type: in vivo, human; details: Part B, QD administration
[3] = system: ER activity signature (87 genes); assay: ER activation score by GSVA of RNA-seq from paired tumor biopsies; type: in vivo, human
Source text: Total RNA was extracted from FFPE tissue (slides of 10 μm). A targeted-enrichment RNA-seq approach was applied utilizing KAPA RNA HyperPrep and whole exome […] kits (Roche) followed by the generation of sequencing reads with NextSeq 500 (Illumina). RNA-seq FASTQ files were processed with STAR aligner and Cufflinks to generate gene-level fragments per kilobase of transcript per million mapped reads (FPKM)[34],[47],[48]. Those FPKM values were converted to the gene-level estimation of expression in transcripts per million (TPM). The TPM data were then quantile-normalized and log2-transformed. GSVA was employed to calculate the ER activation score by using the ER activity signature (87 genes)[31]. […] Results were analyzed using descriptive statistics.

[4] = set-up: method as in PMID 31721572; details: preclinical; cited from earlier work
[5] = Amcenestrant plasma pharmacokinetics (LC-MS/MS, non-compartmental analysis); type: in vivo, human; details: for AUC(0-t) / Cmax / Tmax: human, plasma, oral
Protocol: To evaluate pharmacokinetics in Part A, venous blood samples were collected pre-dose and at regular intervals on cycle 1, day 1 (up to 48 h), on day 3 (up to 24 h), and on day 22 (up to 24 h). […] The validated range was 5 ng/mL to 5000 ng/mL.
In Part B, venous blood samples were collected pre-dose and at regular intervals on cycle 1, day 1 (up to 24 h), and on day 22 (up to 24 h).
NCA was performed using Phoenix® software.

[6] = Part A, repeated QD, Cycle 1 Day 22, fasting, 20 mg, N 3
[7] = Part A, repeated QD, Cycle 1 Day 22, fasting, 150 mg, N 2
[8] = Part A, repeated QD, Cycle 1 Day 22, fasting, 200 mg, N 3
[9] = Part A, repeated QD, Cycle 1 Day 22, fasting, 400 mg, N 3
[10] = Part A, repeated QD, Cycle 1 Day 22, fasting, 600 mg, N 3
[11] = Part B, 400 mg QD, Day 22, N 13

O=C(O)c1ccc2c(c1)CCCC(c1ccc(Cl)cc1Cl)=C2c1ccc(O[C@H]2CCN(CCCF)C2)cc1 [amcenestrant, 6-(2,4-Dichlorophenyl)−5-[4-[(3S)−1-(3-fluoropropyl)pyrrolidin-3-yl]oxyphenyl]−8,9-dihydro-7H-benzo[7]annulene-2-carboxylic acid]
ER degradation efficacy (ER): 98% | EC50 (ER; read-out: ER degradation potency): 200 pM | effect on CYP3A liver enzyme activity (CYP3A): can induce cytochrome P450 (CYP) 3 A liver enzyme activity | objective response rate (ORR) [1]: 6.3% | stable disease (SD), patients [1]: 50% | amcenestrant excreted in urine over the 24-h interval [2]: < 0.1 % of the administered dose | ER activation score by GSVA, median change from screening ([3]; cycle 2, day 28, n = 5, range −1.1 to +0.4): −0.4 | ER activation score, median change from screening ([3]; patients who showed clinical benefit, n = 4, range −1.1 to 0): −0.6 | ER activation score, change from screening ([3]; the patient with no clinical benefit): +0.4 | metabolic stability [4]: metabolically stable | total variability of exposure ([5]; 400 mg dose): < 40% | dose proportionality of exposure ([5]; 20–600 mg QD, single or multiple administrations): did not deviate significantly from dose proportionality; also recorded: exposure increased proportionally with doses up to 600 mg | accumulation on day 22 ([5]; Part A, doses ≥400 mg QD): No accumulation was observed | delay of median tmax by food ([5]; Part A, moderate fat breakfast): ≈ 1 h | food effect on exposure ([5]; Part A, moderate fat breakfast): modestly increased exposure | CLss/F, Geometric mean (CV%) [5, 6]: 14.8 (75.8) L/h | CLss/F, Mean ± SD [5, 6]: 18.0 ± 13.7 L/h | Ctrough, Mean ± SD [5, 6]: 12.6 ± 13.6 ng/mL | CLss/F, Geometric mean (CV%) [5, 7]: 9.99 (46.3) L/h | CLss/F, Mean ± SD [5, 7]: 10.6 ± 4.89 L/h | Ctrough, Geometric mean (CV%) [5, 7]: 134 (15.7) ng/mL | Ctrough, Mean ± SD [5, 7]: 135 ± 21.2 ng/mL | CLss/F, Geometric mean (CV%) [5, 8]: 14.9 (28.0) L/h | CLss/F, Mean ± SD [5, 8]: 15.3 ± 4.30 L/h | Ctrough, Geometric mean (CV%) [5, 8]: 115 (73.0) ng/mL | Ctrough, Mean ± SD [5, 8]: 140 ± 102 ng/mL | CLss/F, Geometric mean (CV%) [5, 9]: 13.5 (95.7) L/h | CLss/F, Mean ± SD [5, 9]: 18.1 ± 17.4 L/h | Ctrough, Geometric mean (CV%) [5, 9]: 245 (79.3) ng/mL | Ctrough, Mean ± SD [5, 9]: 397 ± 315 ng/mL | CLss/F, Geometric mean (CV%) [5, 10]: 14.4 (26.9) L/h | CLss/F, Mean ± SD [5, 10]: 14.7 ± 3.96 L/h | Cmax, Geometric mean (CV%) [5, 10]: 5510 (17.3) ng/mL | Ctrough, Geometric mean (CV%) [5, 10]: 350 (88.2) ng/mL | Ctrough, Mean ± SD [5, 10]: 449 ± 396 ng/mL | Cmax, Geometric mean (CV%) ([5]; Part B, 400 mg QD, Day 1, N 16): 5460 (46.8) ng/mL | Tlag, Median ([5]; Part B, 400 mg QD, Day 1, N 16): 0 h | CLss/F, Geometric mean (CV%) [5, 11]: 9.90 (41.0) L/h | CLss/F, Mean ± SD [5, 11]: 10.6 ± 4.35 L/h | apparent total clearance from plasma at steady state (CLss/F) ([5]; Part B, 400 mg QD, day 22): 10.6 L/h | coefficient of variation for AUC0-24h ([5]; Part B, 400 mg QD, day 22): 37.5% | coefficient of variation for Cmax ([5]; Part B, 400 mg QD, day 22): 28.0% | AUC(0-t) ([5]; 400 mg, Part B, 400 mg QD, Day 1, N 16, read-out: AUC0-24, Geometric mean (CV%)): 44800 ng·h/mL | AUC(0-t) ([5]; 400 mg, Part B, 400 mg QD, Day 1, N 16, read-out: AUC0-24, Mean ± SD): 50900 ± 26000 ng·h/mL | Cmax ([5]; 400 mg, Part B, 400 mg QD, Day 1, N 16, read-out: Cmax, Mean ± SD): 6020 ± 2810 ng/mL | AUC(0-t) ([5]; 400 mg, Part B, 400 mg QD, Day 22, N 13, read-out: AUC0-24, Mean ± SD): 43200 ± 16200 ng·h/mL | Cmax ([5]; 400 mg, Part B, 400 mg QD, Day 22, N 13, read-out: Cmax, Geometric mean (CV%)): 4220 ng/mL | Cmax ([5]; 400 mg, Part B, 400 mg QD, Day 22, N 13, read-out: Cmax, Mean ± SD): 4380 ± 1230 ng/mL | Tmax ([5]; Part A, single dose day 1, starting from the 150-mg dose, read-out: median time to maximum concentration [tmax]): ~3 h | Tmax ([5]; Part B, 400 mg QD, Day 1, N 16, read-out: tmax, Median): 3.98 h
